Assay results as given in ChEMBL document CHEMBL5230138, “Design, synthesis, and antiviral activity of a series of CD4-mimetic small-molecule HIV-1 entry inhibitors” (Bioorg Med Chem, 2021).

Columns and labels:
[1] = system: Human immunodeficiency virus 1; experiment: microbe, parasite or virus in culture; conditions: Human immunodeficiency virus 1, HXB-2 subtype A, U87.CD4.CXCR4, 72 h
[2] = Selectivity index, ratio of CC50 for HIV1 human TZM-bl cells to EC50 for HIV1 ENV pseudotype from the lab-adapted CXCR4-tropic HIV-1 HXB-2 infected in human TZM-bl cells; assay type: toxicity, cell-based; conditions: for selectivity ratio: TZM-bl cells, read-out: Selectivity Index
[3] = system: Human immunodeficiency virus 1; experiment: Antiviral activity against HIV1 Env pseudotype from the lab-adapted CXCR4-tropic HIV-1 HXB-2 infected in human TZM-bl cells preincubated for 30 min followed by viral infection and measured after 3 days by luciferase-based single-cycle infection assay; assay type: functional, organism-based
TZM = experiment: (§1) Cytotoxicity against human TZM-bl cells assessed as reduction in cell viability incubated for 3 days by MTS assay; assay type: toxicity, cell-based; conditions: tzm, 72 h, time 3 day
[4] = as §1; assay type: toxicity, cell-based; conditions: TZM-bl cells, time 3 day
[5] = Human immunodeficiency virus 1, HXB-2, TZM-bl, read-out: IC50

Row | SMILES | selectivity ratio [2] | IC50 [3, 5] [µM] | CC50 (TZM; read-out: CC50) [µM] | other results
1 | NC[C@@H](NC(=O)c1ccc(-c2ccc(C(F)(F)F)cc2)[nH]1)c1ncc(CO)s1 | – | – | – | IC50 [1]: 0.11 µM
2 | NC[C@@H](NC(=O)c1ccc(-c2cc(F)c(Cl)c(F)c2)[nH]1)c1nc(CCO)cs1 | 33.5 | 0.98 | 32.8 | –
3 | NC[C@H](NC(=O)c1ccc(-c2cc(F)c(Cl)c(F)c2)[nH]1)c1nc(CCO)cs1 | 218 | 0.15 | – | –
4 | NC[C@H](NC(=O)c1ccc(-c2ccc(C(F)(F)F)cc2C(F)(F)F)[nH]1)c1nc(CO)cs1 | 7.9 | 4.2 | 33.4 | –
5 | NC[C@H](NC(=O)c1ccc(-c2ccc(C(F)(F)F)c(F)c2)[nH]1)c1nc(CCO)cs1 | 122 | 0.2 | 24.4 | –
6 | NC[C@@H](NC(=O)c1ccc(-c2ccc(C(F)(F)F)c(F)c2)[nH]1)c1nc(C(O)CO)cs1 (some centres not stated) | 23.4 | 2.4 | 56.3 | –
7 | NC[C@H](NC(=O)c1ccc(-c2ccc(C(F)(F)F)c(F)c2)[nH]1)c1nc(C(O)CO)cs1 (some centres not stated) | 132 | 0.55 | 72.4 | –
8 | NC[C@H](NC(=O)c1ccc(-c2ccc(C(F)(F)F)c(F)c2)[nH]1)c1nc(C(=O)O)cs1 | – | – | – | Selectivity Index [2]: Not Determined(Insoluble); IC50 ([3]; tzm-bl): Not Determined(Insoluble); CC50 (TZM): Not Determined(Insoluble)
9 | Cc1cc(-c2ccc(C(F)(F)F)c(F)c2)[nH]c1C(=O)N[C@H](CN)c1ncc(CO)s1 | – | 0.21 | 10.4 | –
10 | N#Cc1ccc(-c2ccc(C(=O)N[C@@H](CN)c3nc(CO)cs3)[nH]2)cc1 | – | > 16 | – | Selectivity Index [2]: Not Determined(Insoluble)
11 | Cc1cc(-c2ccc(C(F)(F)F)c(F)c2)[nH]c1C(=O)N[C@@H](CN)c1ncc(CO)s1 | 49.5 | 0.15 | 10.3 | –
12 | NC[C@@H](NC(=O)c1ccc(-c2ccc(C(F)(F)F)c(F)c2)[nH]1)c1ncc(C(O)CO)s1 (some centres not stated) | 119 | 0.59 | 70.5 | –
13 | COC(=O)c1csc([C@@H](CN)NC(=O)c2ccc(-c3ccc(C(F)(F)F)c(F)c3)[nH]2)n1 | 4.8 | 4.9 | 23.4 | –
14 | Cc1cc(-c2ccc(C(F)(F)F)c(F)c2)[nH]c1C(=O)N[C@@H](CN)c1nc(CO)cs1 | 24.7 | 0.54 | 18.5 | –
15 | NC[C@H](NC(=O)c1ccc(-c2ccc(C(F)(F)F)c(F)c2)[nH]1)c1ncc(C(O)CO)s1 (some centres not stated) | 15.8 | 6.2 | 98 | –
16 | NC[C@@H](NC(=O)c1ccc(-c2ccc(C(F)(F)F)c(F)c2)[nH]1)c1nc(CCO)cs1 | 47.4 | 0.51 | 24.2 | –
17 | Cc1cc(-c2ccc(C(F)(F)F)c(F)c2)[nH]c1C(=O)N[C@H](CN)c1nc(CO)cs1 | 20.6 | 0.57 | 14.1 | –
18 | CC(C)(N)[C@@H](NC(=O)c1ccc(-c2ccc(C(F)(F)F)cc2)[nH]1)c1nc(CO)cs1 | 15.3 | 1.3 | 19.9 | –
19 | CC(C)(N)[C@@H](NC(=O)c1ccc(-c2ccc(C(F)(F)F)cc2)[nH]1)c1ncc(CO)s1 | 34 | 0.68 | 23.1 | –
20 | NC[C@H](NC(=O)c1ccc(-c2ccc(C(F)(F)F)cc2F)[nH]1)c1nc(CCO)cs1 | – | – | 39.6 | –

Row | SMILES | selectivity ratio [2] | IC50 [3, 5] [µM] | CC50 (TZM; read-out: CC50) [µM] | other results
21 | NC[C@@H](NC(=O)c1ccc(-c2ccc(C(F)(F)F)cc2F)[nH]1)c1nc(CCO)cs1 | – | – | 23.4 | –
22 | CC(C)(N)[C@@H](NC(=O)c1ccc(-c2cc(F)c(Cl)c(F)c2)[nH]1)c1nc(CO)cs1 | 135 | 0.15 | 15.8 | –
23 | NC[C@@H](NC(=O)c1ccc(-c2ccc(C(F)(F)F)c(F)c2)[nH]1)c1nc(CCCO)cs1 | 10.8 | 3.5 | 38 | –
24 | CC(C)(N)[C@H](NC(=O)c1ccc(-c2ccc(C(F)(F)F)cc2)[nH]1)c1nc(CO)cs1 | – | 0.13 | 17.5 | –
25 | NC[C@H](NC(=O)c1ccc(-c2ccc(C(F)(F)F)c(F)c2)[nH]1)c1nc(CCCO)cs1 | 90.4 | 0.25 | 22.6 | –
26 | NC[C@H](NC(=O)c1ccc(-c2ccc(C(F)(F)F)cc2F)[nH]1)c1nc(CO)cs1 | 137 | 0.187 | 25.7 | –
27 | CC(C)(N)[C@H](NC(=O)c1ccc(-c2ccc(C(F)(F)F)cc2)[nH]1)c1ncc(CO)s1 | 109 | 0.23 | 25.1 | –
28 | NC[C@@H](NC(=O)c1ccc(-c2ccc(C(F)(F)F)cc2F)[nH]1)c1nc(CO)cs1 | 43.9 | 0.61 | 26.8 | –
29 | NC[C@@H](NC(=O)c1ccc(-c2ccc(C(F)(F)F)cc2)[nH]1)c1ncc(COCC(O)CO)s1 (some centres not stated) | 38 | 2.1 | – | CC50 at 72 h [4]: 80 µM
30 | NC[C@@H](NC(=O)c1ccc(-c2ccc(C(F)(F)F)c(F)c2)[nH]1)c1nc(C(N)=O)cs1 | 11.3 | 2.3 | 25.9 | –
31 | N#Cc1ccc(-c2ccc(C(=O)N[C@H](CN)c3nc(CO)cs3)[nH]2)cc1 | – | > 16 | > 82 | Selectivity Index [2]: Not Determined(Insoluble)
32 | NC[C@@H](NC(=O)c1ccc(-c2ccc(C(F)(F)F)c(F)c2)[nH]1)c1nc(C(=O)O)cs1 | – | – | – | Selectivity Index [2]: Not Determined(Insoluble); IC50 ([3]; tzm-bl): Not Determined(Insoluble); CC50 (TZM): Not Determined(Insoluble)
33 | CC(C)(N)[C@H](NC(=O)c1ccc(-c2cc(F)c(Cl)c(F)c2)[nH]1)c1nc(CO)cs1 | 105 | 0.12 | 16 | –
34 | NC[C@H](NC(=O)c1ccc(-c2ccc(C(F)(F)F)cc2)[nH]1)c1ncc(COCC(O)CO)s1 (some centres not stated) | – | > 13 | > 61.9 | Selectivity Index [2]: Not Determined(Insoluble)
35 | NC[C@H](NC(=O)c1ccc(-c2ccc(C(F)(F)F)c(F)c2)[nH]1)c1nc(C(N)=O)cs1 | 34.2 | > 10 | > 52 | –
36 | NC[C@@H](NC(=O)c1ccc(-c2ccc(C(F)(F)F)cc2C(F)(F)F)[nH]1)c1nc(CO)cs1 | 5.9 | 6.3 | 37.6 | –
37 | COC(=O)c1csc([C@H](CN)NC(=O)c2ccc(-c3ccc(C(F)(F)F)c(F)c3)[nH]2)n1 | 14.3 | 2.9 | 41.6 | –
38 | CC(CN)(NC(=O)c1ccc(-c2cc(F)c(Cl)c(F)c2)[nH]1)c1nc(CO)cs1 (racemic) | 18.3 | 2.6 | 47.7 | –
39 | CC(CN)(NC(=O)c1ccc(-c2ccc(C(F)(F)F)c(F)c2)[nH]1)c1nc(CO)cs1 (racemic) | 28 | 1.6 | 45.3 | –
